Laboratory results from patent publication US10004753B2, “Methods for treating tauopathy” (The J. David Gladstone Institutes, priority 2015, dated 2018).

Key:
[1] = tested on: HEK293 cells overexpressing hTau (WT) and p300; test: Ac-tau and p-tau Western blot in HEK293 cells treated with salicylate; format: cell-based, human; conditions: 0, 5, 10 mM salicylate for 24 hr
Description: To examine the effects of salicylate treatment on tau acetylation and phosphorylation, HEK293 cells overexpressing hTau (WT) and p300 were treated with sodium salicylate (SS).
FIGS. 1A-1D. Salicylate inhibits p300 and reduces ac-tau and p-tau in vitro (FIG. 1A) HEK293 cells overexpressing wild-type human tau were treated with 0, 5, 10 mM salicylate for 24 hr. Representative Western blot of four experiments. (FIG. 1B) Quantification of ac-tau and p-tau levels in HEK293 cells treated with salicylate. ac-tau/t-tau, p-tau/t-tau in non-treated cells were set as 1. n=4. **, p<0.01, ***, p<0.001 (two-tails unpaired t-test). Error bar, S.E.M. (FIG. 1C) Rat primary cortical neurons infected with lenti-hTau (WT) were treated with 0, 5, or 10 mM salicylate for 24 hr. Representative Western blot of four experiments. (FIG. 1D) Quantification of ac-tau, p-tau and p300 levels in primary neurons treated with salicylate. ac-tau/t-tau, p-tau/t-tau and p300/GAPDH in non-treated cells were set as 1. n=4. *, p<0.05, **, p<0.01, ***, p<0.001 (two-tails unpaired t-test). Error bar, S.E.M.

[2] = tested on: primary neurons, K174Q tau; test: Tau-lowering effect of salicylate on K174Q mutant tau in primary neurons; format: cell-based; conditions: K174 mutated to glutamine
p300 = p300 (Homo sapiens, UniProt Q09472); conditions: recently identified; cited from earlier work
Chain of p300 (Q09472 whole entry, species assumed): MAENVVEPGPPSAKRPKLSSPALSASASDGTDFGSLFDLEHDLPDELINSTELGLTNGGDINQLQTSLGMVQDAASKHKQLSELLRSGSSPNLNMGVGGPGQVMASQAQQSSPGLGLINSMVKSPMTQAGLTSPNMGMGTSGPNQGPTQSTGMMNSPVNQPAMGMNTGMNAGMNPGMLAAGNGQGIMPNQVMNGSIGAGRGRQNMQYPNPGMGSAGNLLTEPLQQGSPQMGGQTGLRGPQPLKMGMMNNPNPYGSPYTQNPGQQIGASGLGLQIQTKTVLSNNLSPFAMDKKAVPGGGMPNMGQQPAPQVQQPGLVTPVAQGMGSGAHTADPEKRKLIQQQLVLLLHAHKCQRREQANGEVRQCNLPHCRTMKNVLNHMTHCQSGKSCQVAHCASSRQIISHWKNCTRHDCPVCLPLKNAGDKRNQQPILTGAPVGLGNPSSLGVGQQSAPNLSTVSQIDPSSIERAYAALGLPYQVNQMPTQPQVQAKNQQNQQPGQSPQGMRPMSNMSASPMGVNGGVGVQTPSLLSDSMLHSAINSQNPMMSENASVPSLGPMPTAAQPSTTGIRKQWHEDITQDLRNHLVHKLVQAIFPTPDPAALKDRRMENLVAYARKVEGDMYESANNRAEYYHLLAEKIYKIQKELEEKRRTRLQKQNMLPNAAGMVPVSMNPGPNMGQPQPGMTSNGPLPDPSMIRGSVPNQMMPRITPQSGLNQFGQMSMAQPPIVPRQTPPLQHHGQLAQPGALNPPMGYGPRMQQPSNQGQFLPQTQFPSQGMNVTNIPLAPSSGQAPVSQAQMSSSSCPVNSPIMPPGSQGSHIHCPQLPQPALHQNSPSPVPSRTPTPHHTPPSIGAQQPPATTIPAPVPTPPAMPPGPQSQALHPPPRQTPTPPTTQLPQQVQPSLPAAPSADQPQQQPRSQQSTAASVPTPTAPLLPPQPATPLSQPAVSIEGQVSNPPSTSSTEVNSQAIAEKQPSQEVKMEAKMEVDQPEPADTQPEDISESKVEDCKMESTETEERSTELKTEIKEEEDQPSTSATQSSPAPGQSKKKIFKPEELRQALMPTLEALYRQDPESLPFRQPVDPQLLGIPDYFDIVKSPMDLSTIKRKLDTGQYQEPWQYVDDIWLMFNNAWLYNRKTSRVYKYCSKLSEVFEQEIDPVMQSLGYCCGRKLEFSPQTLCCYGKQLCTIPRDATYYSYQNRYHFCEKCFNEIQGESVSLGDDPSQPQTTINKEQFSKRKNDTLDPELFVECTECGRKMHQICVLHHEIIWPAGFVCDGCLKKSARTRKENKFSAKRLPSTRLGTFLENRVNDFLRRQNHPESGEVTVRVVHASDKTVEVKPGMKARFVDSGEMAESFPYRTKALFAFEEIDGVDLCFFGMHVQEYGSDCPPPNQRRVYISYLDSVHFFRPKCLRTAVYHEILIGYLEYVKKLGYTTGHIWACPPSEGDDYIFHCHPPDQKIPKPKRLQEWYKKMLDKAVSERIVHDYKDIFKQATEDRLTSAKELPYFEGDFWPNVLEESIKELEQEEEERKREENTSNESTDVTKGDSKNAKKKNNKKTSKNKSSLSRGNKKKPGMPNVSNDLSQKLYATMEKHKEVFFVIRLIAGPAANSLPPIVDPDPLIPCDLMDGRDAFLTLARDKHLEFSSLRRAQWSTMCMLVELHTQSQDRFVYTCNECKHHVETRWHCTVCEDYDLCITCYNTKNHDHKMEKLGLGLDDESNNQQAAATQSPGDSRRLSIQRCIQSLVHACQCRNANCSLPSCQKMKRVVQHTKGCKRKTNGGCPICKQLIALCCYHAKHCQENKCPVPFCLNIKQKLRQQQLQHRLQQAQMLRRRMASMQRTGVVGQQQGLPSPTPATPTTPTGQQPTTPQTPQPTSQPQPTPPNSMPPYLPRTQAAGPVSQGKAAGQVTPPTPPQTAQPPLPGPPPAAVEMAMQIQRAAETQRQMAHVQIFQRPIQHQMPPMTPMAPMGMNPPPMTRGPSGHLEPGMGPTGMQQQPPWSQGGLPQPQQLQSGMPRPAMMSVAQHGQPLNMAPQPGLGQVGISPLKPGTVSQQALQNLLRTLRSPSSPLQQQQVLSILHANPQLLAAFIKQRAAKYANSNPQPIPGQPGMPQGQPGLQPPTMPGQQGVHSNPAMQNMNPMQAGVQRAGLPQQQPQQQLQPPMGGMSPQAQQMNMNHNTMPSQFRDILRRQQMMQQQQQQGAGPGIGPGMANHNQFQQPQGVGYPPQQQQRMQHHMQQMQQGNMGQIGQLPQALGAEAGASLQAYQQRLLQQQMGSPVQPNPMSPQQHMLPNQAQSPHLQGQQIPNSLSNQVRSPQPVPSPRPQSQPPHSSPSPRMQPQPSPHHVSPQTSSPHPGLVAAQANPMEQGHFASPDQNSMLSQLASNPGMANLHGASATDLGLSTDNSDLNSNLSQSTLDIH

[3] = PK analyses of salsalate (SSA) and salicylic acid (SA) in brain and plasma; format: in vivo, C57B6 mice; conditions: oral gavage, single bolus dose, mice
Description: SSA was administered to C57B6 mice via oral gavage as a single bolus dose. Mice were sacrificed at predetermined time points and plasma and brain tissue samples were harvested for analysis by PPL labs (Redwood City, Calif., USA). SSA and its metabolite SA were measured simultaneously using oxopropanoyloxy benzoic acid as an internal standard solution. To extract SSA/SA from brain, 200 μl of 50% Acetonitrile in 0.1% formic acid was added to 30-50 mg of cortical tissue, followed by homogenization and vortexing. After addition of 200 μl of the internal standard solution, the samples were centrifuged and the supernatants were transferred for injection. To measure SSA/SA in the plasma, 10 μl of plasma samples were mixed with 90 μl H2O and 100 μl of Internal Standard Solution, followed by centrifugation and injection. HPLC was performed using a C18 column following a gradient program (10% to 90% acetonitrile over a period of 6 min) with a flow rate of 0.4 ml/min. The injection volume was ˜5 μl. Mass spectrometry analyses were performed on 3200 Q TRAP system (AB SCIEX, Framingham, Mass. USA.) using an MQL algorithm.

PS19 mice [4] = test: Fixed Location Dry Maze; format: in vivo, mouse; conditions: 225 mg/kg oral gavage for 8 weeks; 7-8 month old PS19 mice
Description: For SSA treatment experiments, only female PS19 mice obtained from Jackson Laboratory were used. The mice were housed in a conventional facility at Stanford University (Palo Alto, Calif.<USA) with a 12-h light/dark reverse cycle and ad libitum access to food and water. All behavior experiments of PS19 mice were performed during daylight hours and carried out under Stanford University School of Medicine, Institutional Animal Care and Use Committee-approved guidelines.
The Fixed Location Dry Maze is also called DMP dry maze (Faizi, M., et al. Brain Behav 2, 142-154 (2012)). Experiments were performed at an animal facility at Stanford University (Palo Alto, Calif.). Mice were housed at a standard temperature (22±1° C.), in a reverse light-controlled environment (lights off from 8:30 am to 8:30 pm) with ad libitum access to food and water. Animals are group-housed with minimal enrichment such as shelter (paper towel tubes and nestlets). The experimenter remained blinded to the experimental groups throughout the entire study. […] The subjects were monitored by a video tracking system directly above maze, and the parameters were measured using the computer software Ethovision. […] Time in each quadrant was recorded and memory was assessed by the time spent in the target quadrant versus the other three quadrants. […]

PS19 mice [5] = test: Hippocampal volume and NeuN-positive cell number; format: in vivo, mouse; conditions: 10 months old PS19 mice vs wild-type littermates
Text: The neurodegeneration phenotype of PS19 mice was examined by measuring hippocampal volume and NeuN-positive cell number. […] (FIG. 4A) 10 months old PS19 mice have significant hippocampal volume loss compared to wild-type, which is absent in SSA-treated group. Left. Representative nissl staining of hippocampus from vehicle-treated WT, vehicle-treated PS19 and SSA-treated PS19 mice. ***, p<0.001, *, p<0.05 (two-tails unpaired t-test). Error bar, S.E.M. Scale bar, 500 um. (FIG. 4B) 10 months old PS19 mice have significant reduction of NeuN-positive cells compared to wild-type, which is absent in SSA-treated group. Left. Representative NeuN staining of hippocampus from vehicle-treated WT, vehicle-treated PS19 and SSA-treated PS19 mice. **, p<0.01 (two-tails unpaired t-test). Error bar, S.E.M. (FIG. 4C) NeuN number positively correlates with time spent in target quadrant in dry maze. p=0.0142 (linear regression).

PS19 mice [6] = test: Western blot of ac-tau, p-tau, t-tau, p300 and ac-H2A in hippocampal/brain lysate; format: in vivo, mouse
Text: The levels of ac-tau and phospho-tau in the hippocampal lysate of PS19 mice were examined (FIG. 5A).
Salsalate treatment in PS19 mice inhibits p300 activity and reduces tau acetylation. (FIG. 5A) Representative Western blot showing levels of ac-tau, p-tau, t-tau and GAPDH in brain lysate of PS19 mice treated with salsalate (SSA) or vehicle (veh). Wild-type (WT) littermates treated with vehicle and tau knockout (KO) mice were included as controls. (FIG. 5B) Quantification of ac-tau and p-tau levels in brain lysate of PS19 mice treated with vehicle or salsalate. ac-tau/t-tau and p-tau/t-tau in vehicle-treated group were set as 1. n=8. **, p<0.01 (two-tails unpaired t-test). Error bar, S.E.M. (FIG. 5C) Representative Western blot showing levels of p300, ac-H2A(K5), H2A and GAPDH in brain lysate of PS19 mice treated with salsalate (SSA) or vehicle (veh). (FIG. 5D) Quantification of p300 and ac-H2A levels in brain lysate of PS19 mice treated with vehicle or salsalate. p300/GAPDH and ac-H2A/H2A in vehicle-treated group were set as 1. n=8. *, p<0.05 (two-tails unpaired t-test). Error bar, S.E.M.

AAV-K174Q-injected mice = test: SSA treatment of AAV-K174Q-injected mice; format: in vivo, mouse
Text: FIG. 8 provides (Left) an immunoblot analysis of ac-H2AK5, H2A, p-tau (AT8 and PHF-1), t-tau (HT7) and GAPDH in mice infected with AAV-K174Q and treated with SSA or vehicle; and (Right) a graph depicting the results of a quantification of ac-H2AK5 and H2A. n=11 (vehicle) or 10 (SSA) mice; *P<0.05, unpaired Student's t-test; values are mean±s.e.m.
ELISA analysis of K174Q tau after SSA treatment. n=11 (vehicle) or 10 (SSA) mice; ns, not significant; P=0.3647; unpaired Student's t-test; values are mean±s.e.m.
FIG. 10 provides graphs showing that levels of PHF1-positive p-tau relative to t-tau, or AT8-positive p-tau normalized by t-tau or GAPDH, were not affected by SSA treatment. Levels of PHF-1-positive p-tau normalized to HT7 (left) or AT8-positive p-tau normalized to HT7 (middle) or GAPDH (right) after SSA treatment. n=11 (vehicle) or 10 (SSA) mice; ns, not significant, unpaired Student's t-test. Values are mean±s.e.m.
Nissl staining (left) and hippocampal volume (right) in mice expressing K174Q tau after SSA treatment. Scale bars, 500 μm; n=11 (vehicle) or 10 (SSA) mice; ns, not significant, unpaired Student's t-test. Values are mean±s.e.m.
For AAV-Tau (adeno-associated virus encoding Tau) injection experiments, only male mice were purchased from Jackson Laboratory with the same age and genetic background (C57BL/6) and used for all the experiments. The mice were housed in a pathogen-free barrier facility at UCSF with a 12-h light/dark cycle and ad libitum access to food and water. All behavior experiments were performed during daylight hours. All animal procedures were carried out under University of California, San Francisco, Institutional Animal Care and Use Committee-approved guidelines.
To determine if SSA's beneficial effects involve inhibition of ac-K174 in vivo. Two-month after injecting with AAV-K174Q, mice were treated with SSA daily as previously performed in PS19 mice. Ac-H2AK5 levels were reduced in the SSA-treated group, confirming inhibition of p300 by SSA (FIG. 8). […] Levels of PHF1-positive p-tau relative to t-tau, or AT8-positive p-tau normalized by t-tau or GAPDH, were also not affected by SSA treatment (FIG. 10).

PS19 mice [7] = test: NFT analysis by Gallyas silver staining; format: in vivo, mouse; conditions: female and male cohorts, age 10-11 months
Text: FIGS. 12A and 12B provide silver staining results in neurites from neocortex and hippocampal regions for mice treated with SSA. Analysis of NFTs by Gallyas silver staining (FIG. 12A) and quantification of silver-positive cells in neurites from neocortex and hippocampal regions CA1 and CA3 (FIG. 12B) in vehicle-treated NTG mice and PS19 mice treated with vehicle or SSA. Scale bar, 250 μm (c, top); 25 μm (c, middle and bottom); n=8 mice (age 10-11 months) per genotype per treatment; *P<0.05, unpaired Student's t-test. Values are mean±s.e.m.
Prominent NFTs and dystrophic neurites, positive for Gallyas silver staining, were detected throughout the forebrains in PS19 mice (FIG. 12A).

[8] = brain lysate of PS19 mice, vs vehicle
[9] = hippocampal lysate of PS19 mice, vs vehicle-treated group
[10] = AAV-K174Q-injected mice, vs vehicle

SMILES | AT8-positive phospho-tau level (p-tau/t-tau) [1] | Ac-tau level (ac-tau/t-tau) [1] | Tau-lowering effect with K174Q mutation [2] | p300 inhibition (p300) | Brain penetration [3] | Memory retention in probe trial (time in target vs non-target quadrant) (PS19 mice [4]) | Spatial learning (learning curve) (PS19 mice [4]) | Hippocampal volume (PS19 mice [5]) | Number of NeuN-positive cells in hippocampal section (PS19 mice [5]) | t-tau levels in PS19 mice (PS19 mice [6]; PS19 mice) | p300 HAT activity as measured by levels of histone acetylation (ac-H2A/H2A) (PS19 mice [6]; [8]) | p300 levels (p300/GAPDH) (PS19 mice [6]; [8]) | AT-8 positive phospho-tau levels (p-tau/t-tau) (PS19 mice [6]; [9]) | ac-tau levels (ac-tau/t-tau) (PS19 mice [6]; [9]) | Ac-H2AK5 levels (AAV-K174Q-injected mice; AAV-K174Q-injected mice, SSA daily, vs vehicle) | AT8-positive p-tau normalized by t-tau or GAPDH (AAV-K174Q-injected mice; [10]) | Hippocampal atrophy (hippocampal volume) (AAV-K174Q-injected mice; [10]) | PHF1-positive p-tau relative to t-tau (AAV-K174Q-injected mice; [10]) | Levels of t-tau (ELISA) (AAV-K174Q-injected mice; K174Q injected mice, vs vehicle treated controls) | Number of Gallyas silver-positive neurons and neurites in cortex and hippocampus (PS19 mice [7])
O=C(O)c1ccccc1O [salicylate, Salicylic acid] | reduced | significantly reduced by salicylate in a dose-dependent manner | abolished the tau-lowering effects | p300 inhibitor | – | – | – | – | – | – | – | – | – | – | – | – | – | – | – | –
O=C(Oc1ccccc1C(=O)O)c1ccccc1O [salsalate] | – | – | – | – | readily penetrates into the brain | significantly rescued the deficit | did not rescue the learning deficit | did not show any hippocampal volume loss | did not show any significant difference compared to wild-type | tau-lowering effects | significant reduction of p300 HAT activity | trend of reduction in p300 levels | trend of reduction in AT-8 positive phospho-tau levels, although the difference was not significant | significantly lower ac-tau levels | reduced | not affected | failed to prevent/reduce hippocampal atrophy | not affected | failed to reduce levels of t-tau | reduced the number of Gallyas silver-positive neurons and neurites
